Where “and” joins values, the source holds several entries; their conditions need not be identical. Equal entries are not always repeated.
How the values were obtained:
p-IRE1α dimerization = biological target: T1, p-IRE1α dimerization (Homo sapiens, UniProt O75460); assay: SDS-PAGE gel-based crosslinking assay
T1 construct: Human IRE1α kinase and RNase domain (residues 547–977) was subcloned into pLIB plasmid; His tag (with TEV cleavage site) (N, cleaved yes); made in house; host or cells: Sf9 insect cells, baculovirus (Bac-to-Bac)
From the text: sustained inhibition effect.”
Fig. R1. (A) Gel-based cleavage assay using the same condition as FRET assay. (B) Fig.4g of current manuscript, IA107 binding affinity towards p-IRE1α in MST assay.
-Using Refeyn mass photometry of cross-linked IRE1α complexes, the authors observe that […]
However, this finding appears inconsistent with their crystallographic data showing separated RNase domains in dimeric IRE1. Since both kinase and RNase domain interactions contribute to the IRE1 dimer interface, one would expect at least some reduction in dimerization levels. It is also a bit worrying that the authors observe that one of the control compounds tested (G1749) also blocks dimerization/oligomerization in their assay (Extended Data Fig. 6d and 6e), as this compound was found not to affect the monomer/dimer equilibrium of IRE1 in PMID: 33318494.
We appreciate the Reviewer’s comments regarding the dimerization experiments. Our crystal […]
remain in the same dimer interaction interface as the apo p-IRE1α dimer. […]
observe dimerization inhibition by IA107 in the mass photometry assay nor SDS-PAGE gel-based crosslinking assay (Fig. R2A). […]
Fig. R2. […] Analyzed using the PDBePISA web server (PMID: 17681537). […]
inhibits IRE1α's RNase activity (measured as spliced XBP1 levels) in cells through engagement of IRE1α. […]

A549 cells = assay: Cell viability assay (CCK-8), A549; format: cell-based, human; conditions: A549; for inhibition at 50 µM: Homo sapiens, read-out: antiproliferation, inhibition at highest tested concentration
Experimental: (§1) Cells were collected and seeded into 96-well plates at a density of 2000–4000 cells per well and cultured overnight to allow cells to adhere. After adherence, cells were treated with the indicated compounds for 72 h. Then 20 μL CCK-8 solution (Vazyme, A311) was added into each well and incubated at 37 °C for 2–4 h. Absorbance was detected at a wavelength of 450 nm using a TECAN plate reader. Cell viability was calculated with the equation: Cell viability (%) = 100(Absorbance of treated cell - Absorbance of Blank control)/ (Absorbance of DMSO-treated cells - Absorbance of Blank control); Blank control: medium and CCK-8 solution, no cells.

HCT 116 cells = assay: Cell viability assay (CCK-8), HCT 116; format: cell-based, human; conditions: HCT 116; for inhibition at 50 µM: Homo sapiens, read-out: antiproliferation, inhibition at highest tested concentration
Experimental: as §1

MDA-MB-468 cells = assay: Cell viability assay (CCK-8), MDA-MB-468; format: cell-based, human; conditions: MDA-MB-468; for inhibition at 50 µM: Homo sapiens, read-out: antiproliferation, inhibition at highest tested concentration
Experimental: as §1

[1] = system: XBP1 mRNA splicing in A549 cells; assay: RT-qPCR of ER stress-induced XBP1 mRNA splicing, A549; format: cell-based, human; conditions: for Relative XBP1s/Actin: Fig. 7a, 0.5μg/mL Tm, individual replicates
Experimental: A549 cells, HCT 116 cells, and HT-29 cells were collected and seeded in 6-well plates at a density of 5 × 10^5 cells per well and cultured overnight to attach, then treated with compound or DMSO for 2 h, then 0.5 μg/mL final concentration of tunicamycin (Tm, MP Biomedi, 0215002805) were added to induce the ER stress for 2 h. After treatment, total RNA was purified using an RNeasy mini kit (Qiagen, 74106). 500 ng of total RNA was used for reverse transcription using the High-Capacity cDNA Reverse Transcription Kits (Thermo Fisher, 4368814). cDNA was diluted 1: 5 using RNase-free water, and 1 μL CDNA was used for each qPCR reaction. The qPCR was performed using PowerUp™ SYBR™ Green Master Mix (Thermo Fisher, A25742) with 10 µL reaction volume using Bio-Rad CFX96 Real-Time PCR Detection System following the standard cycling mode (primer Tm ≥ 60 °C) on the manufacturer’s protocol. Data was analyzed using the 2^- ΔΔCt method. The primers used are listed in Supplementary Table S3. The inhibition % was calculated by using the equation: inhibition% = 100× (normalized Tm control - normalized of the sample)/(normalized Tm control - normalized DMSO control). Tm control: Cells treated with tunicamycin; DMSO control: Cells treated with DMSO only.

T1 sequence (O75460 547-977): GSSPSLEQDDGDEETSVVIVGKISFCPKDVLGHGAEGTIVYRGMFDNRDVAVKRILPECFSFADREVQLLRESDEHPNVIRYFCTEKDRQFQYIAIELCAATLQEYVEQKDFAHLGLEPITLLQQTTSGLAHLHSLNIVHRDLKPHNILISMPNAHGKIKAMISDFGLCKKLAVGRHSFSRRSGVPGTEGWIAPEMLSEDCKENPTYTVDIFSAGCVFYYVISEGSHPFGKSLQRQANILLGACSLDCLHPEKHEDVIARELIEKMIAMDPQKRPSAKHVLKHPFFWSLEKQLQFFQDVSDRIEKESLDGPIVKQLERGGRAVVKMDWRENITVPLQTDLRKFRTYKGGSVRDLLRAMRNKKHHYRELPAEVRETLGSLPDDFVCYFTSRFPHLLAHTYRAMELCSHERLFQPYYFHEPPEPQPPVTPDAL

| Structure (SMILES) | effect on p-IRE1α dimerization (p-IRE1α dimerization) | cytotoxicity (A549 cells) | inhibition at 50 µM (A549 cells) | cytotoxicity (HCT 116 cells) | inhibition at 50 µM (HCT 116 cells) | inhibition at 50 µM (MDA-MB-468 cells) | cytotoxicity (MDA-MB-468 cells) | inhibition of ER stress-induced XBP1 mRNA splicing ([1]; A549 cells, 2 h pre-treatment, 2 h tunicamycin) | Relative XBP1s/Actin ([1]; 5 μM) | Relative XBP1s/Actin ([1]; 10 μM) | Relative XBP1s/Actin ([1]; 25 μM) | Relative XBP1s/Actin ([1]; 50 μM) | IC50 ([1]; Homo sapiens, A549 cells, tunicamycin, read-out: cellular IC50, ER stress-induced XBP1 mRNA splicing) | improvement of the cellular activity in inhibiting XBP1 mRNA splicing ([1]; prodrug versus IA107) |
| --- | --- | --- | --- | --- | --- | --- | --- | --- | --- | --- | --- | --- | --- | --- |
| Cc1c(CCC(=O)O)c2cc(Br)ccc2n1C(=O)c1ccccc1 [IA107] | did not | did not show cytotoxicity | < 30% | did not show cytotoxicity | < 30% | < 30% | did not show cytotoxicity | concentration-dependently inhibited | 3.514 and 3.6054 and 3.452 and 3.1438 | 3.066 and 2.696 and 2.897 and 2.792 | 2.48 and 2.329 and 2.338 and 2.263 | 1.745 and 1.521 and 1.514 and 1.455 |  |  |
| CCOC(=O)CCc1c(C)n(C(=O)c2ccccc2)c2ccc(Br)cc12 [IAPD1] |  | did not show cytotoxicity | < 30% | did not show cytotoxicity | < 30% | < 30% | did not show cytotoxicity |  |  |  |  |  | 180 nM | 50 fold |
| Cc1ccc2c(NS(=O)(=O)c3ccccc3Cl)cccc2c1Oc1ncccc1-c1ccnc(N[C@H]2CCCNC2)n1 [KIRA8] | inhibited dimerization |  |  |  |  |  |  |  |  |  |  |  |  |  |
